Assays:
Assay in all cases: Kinase selectivity panel
Assay type in all cases: biochemical
Conditions in all cases: read-out: Inhibition(%) @ 1 µM RK-019
CHK2(R145W)(h) = target: T1, CHK2(R145W)(h) (Homo sapiens, UniProt O96017, R145W)
T1 construct: purchased Eurofins Discovery Services (KinaseProfiler)
Method in brief: (§1)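 Single-point selectivity screen: 1 µM compound, recombinant human enzyme, in vitro ATP-site competition binding; result expressed as inhibition ratio.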

TTBK2(h) = target: T2, TTBK2(h) (Homo sapiens, UniProt Q6IQ55)
T2 construct: purchased Eurofins Discovery Services (KinaseProfiler)
Method in brief: as §1

PRAK(h) = target: T3, PRAK(h) (Homo sapiens, UniProt Q8IW41)
T3 construct: purchased Eurofins Discovery Services (KinaseProfiler)
Method in brief: as §1

GRK5(h) = target: T4, GRK5(h) (Homo sapiens, UniProt P34947)
T4 construct: purchased Eurofins Discovery Services (KinaseProfiler)
Method in brief: as §1

ACTR2(h) = target: T5, ACTR2(h) (Homo sapiens, UniProt P27037)
T5 construct: purchased Eurofins Discovery Services (KinaseProfiler)
Method in brief: as §1

EphB2(h) = target: T6, EphB2(h) (Homo sapiens, UniProt P29323)
T6 construct: purchased Eurofins Discovery Services (KinaseProfiler)
Method in brief: as §1

MAPK1(h) = target: T7, MAPK1(h) (Homo sapiens, UniProt P27361)
T7 construct: purchased Eurofins Discovery Services (KinaseProfiler)
Method in brief: as §1

CDK4/cyclinD3(h) = target: T8, CDK4/cyclinD3(h) (Homo sapiens, UniProt P11802)
T8 construct: purchased Eurofins Discovery Services (KinaseProfiler)
Method in brief: as §1

ROCK-I(h) = target: T9, ROCK-I(h) (Homo sapiens, UniProt Q13464)
T9 construct: purchased Eurofins Discovery Services (KinaseProfiler)
Method in brief: as §1

PASK(h) = target: T10, PASK(h) (Homo sapiens, UniProt Q96RG2)
T10 construct: purchased Eurofins Discovery Services (KinaseProfiler)
Method in brief: as §1

CLK4(h) = target: T11, CLK4(h) (Homo sapiens, UniProt Q9HAZ1)
T11 construct: purchased Eurofins Discovery Services (KinaseProfiler)
Method in brief: as §1

ROCK-II(h) = target: T12, ROCK-II(h) (Homo sapiens, UniProt O75116)
T12 construct: purchased Eurofins Discovery Services (KinaseProfiler)
Method in brief: as §1

MEK2(h) = target: T13, MEK2(h) (Homo sapiens, UniProt P36507)
T13 construct: purchased Eurofins Discovery Services (KinaseProfiler)
Method in brief: as §1

JNK1α1(h) = target: T14, JNK1α1(h) (Homo sapiens, UniProt P45983)
T14 construct: purchased Eurofins Discovery Services (KinaseProfiler)
Method in brief: as §1

STK25(h) = target: T15, STK25(h) (Homo sapiens, UniProt O00506)
T15 construct: purchased Eurofins Discovery Services (KinaseProfiler)
Method in brief: as §1

LOK(h) = target: T16, LOK(h) (Homo sapiens, UniProt O94804)
T16 construct: purchased Eurofins Discovery Services (KinaseProfiler)
Method in brief: as §1

[1] = target: T17, PI3 Kinase (p110b/p85a)(h) (Homo sapiens, UniProt P42338)
T17 construct: purchased Eurofins Discovery Services (KinaseProfiler)
Method in brief: as §1

CaMKK1(h) = target: T18, CaMKK1(h) (Homo sapiens, UniProt Q8N5S9)
T18 construct: purchased Eurofins Discovery Services (KinaseProfiler)
Method in brief: as §1

NEK9(h) = target: T19, NEK9(h) (Homo sapiens, UniProt Q8TD19)
T19 construct: purchased Eurofins Discovery Services (KinaseProfiler)
Method in brief: as §1

Abl (M351T)(h) = target: T20, Abl (M351T)(h) (Homo sapiens, UniProt P00519, M351T)
T20 construct: purchased Eurofins Discovery Services (KinaseProfiler)
Method in brief: as §1

ASK1(h) = target: T21, ASK1(h) (Homo sapiens, UniProt Q99683)
T21 construct: purchased Eurofins Discovery Services (KinaseProfiler)
Method in brief: as §1

Blk(m) = target: T22, Blk(m) (Mus musculus, UniProt P16277)
T22 construct: purchased Eurofins Discovery Services (KinaseProfiler)

CLK3(h) = target: T23, CLK3(h) (Homo sapiens, UniProt P49761)
T23 construct: purchased Eurofins Discovery Services (KinaseProfiler)
Method in brief: as §1

TSSK1(h) = target: T24, TSSK1(h) (Homo sapiens, UniProt Q9BXA7)
T24 construct: purchased Eurofins Discovery Services (KinaseProfiler)
Method in brief: as §1

SBK1(h) = target: T25, SBK1(h) (Homo sapiens, UniProt Q52WX2)
T25 construct: purchased Eurofins Discovery Services (KinaseProfiler)
Method in brief: as §1

Abl(Y253F)(h) = target: T26, Abl(Y253F)(h) (Homo sapiens, UniProt P00519, Y253F)
T26 construct: purchased Eurofins Discovery Services (KinaseProfiler)
Method in brief: as §1

Bmx(h) = target: T27, Bmx(h) (Homo sapiens, UniProt P51813)
T27 construct: purchased Eurofins Discovery Services (KinaseProfiler)
Method in brief: as §1

MEKK3(h) = target: T28, MEKK3(h) (Homo sapiens, UniProt Q99759)
T28 construct: purchased Eurofins Discovery Services (KinaseProfiler)
Method in brief: as §1

MRCKγ(h) = target: T29, MRCKγ(h) (Homo sapiens, UniProt Q6DT37)
T29 construct: purchased Eurofins Discovery Services (KinaseProfiler)
Method in brief: as §1

VRK2(h) = target: T30, VRK2(h) (Homo sapiens, UniProt Q86Y07)
T30 construct: purchased Eurofins Discovery Services (KinaseProfiler)
Method in brief: as §1

TTBK1(h) = target: T31, TTBK1(h) (Homo sapiens, UniProt Q5TCY1)
T31 construct: purchased Eurofins Discovery Services (KinaseProfiler)
Method in brief: as §1

BTK(h) = target: T32, BTK(h) (Homo sapiens, UniProt Q06187)
T32 construct: purchased Eurofins Discovery Services (KinaseProfiler)
Method in brief: as §1

Tec(h) activated = target: T33, Tec(h) activated (Homo sapiens, UniProt P42680)
T33 construct: purchased Eurofins Discovery Services (KinaseProfiler)
Method in brief: as §1

CaMKIIβ(h) = target: T34, CaMKIIβ(h) (Homo sapiens, UniProt Q13554)
T34 construct: purchased Eurofins Discovery Services (KinaseProfiler)
Method in brief: as §1

Rsk4(h) = target: T35, Rsk4(h) (Homo sapiens, UniProt Q9UK32)
T35 construct: purchased Eurofins Discovery Services (KinaseProfiler)
Method in brief: as §1

AMPKα2(h) = target: T36, AMPKα2(h) (Homo sapiens, UniProt P54646)
T36 construct: purchased Eurofins Discovery Services (KinaseProfiler)
Method in brief: as §1

CK1γ3(h) = target: T37, CK1γ3(h) (Homo sapiens, UniProt Q9Y6M4)
T37 construct: purchased Eurofins Discovery Services (KinaseProfiler)
Method in brief: as §1

T37 sequence (Q9Y6M4 whole entry): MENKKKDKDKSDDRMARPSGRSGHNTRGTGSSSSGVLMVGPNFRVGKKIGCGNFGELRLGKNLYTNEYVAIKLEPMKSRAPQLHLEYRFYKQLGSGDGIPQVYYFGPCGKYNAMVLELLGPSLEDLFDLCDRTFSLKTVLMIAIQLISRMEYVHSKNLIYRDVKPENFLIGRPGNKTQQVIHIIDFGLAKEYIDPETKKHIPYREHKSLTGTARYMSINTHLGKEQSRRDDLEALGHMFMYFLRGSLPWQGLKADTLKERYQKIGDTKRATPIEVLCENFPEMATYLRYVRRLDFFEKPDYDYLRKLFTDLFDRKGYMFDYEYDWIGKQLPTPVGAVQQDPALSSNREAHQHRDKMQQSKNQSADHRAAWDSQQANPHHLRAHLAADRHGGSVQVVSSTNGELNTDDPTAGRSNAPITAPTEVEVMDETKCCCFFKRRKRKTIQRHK
T16 sequence (O94804 whole entry): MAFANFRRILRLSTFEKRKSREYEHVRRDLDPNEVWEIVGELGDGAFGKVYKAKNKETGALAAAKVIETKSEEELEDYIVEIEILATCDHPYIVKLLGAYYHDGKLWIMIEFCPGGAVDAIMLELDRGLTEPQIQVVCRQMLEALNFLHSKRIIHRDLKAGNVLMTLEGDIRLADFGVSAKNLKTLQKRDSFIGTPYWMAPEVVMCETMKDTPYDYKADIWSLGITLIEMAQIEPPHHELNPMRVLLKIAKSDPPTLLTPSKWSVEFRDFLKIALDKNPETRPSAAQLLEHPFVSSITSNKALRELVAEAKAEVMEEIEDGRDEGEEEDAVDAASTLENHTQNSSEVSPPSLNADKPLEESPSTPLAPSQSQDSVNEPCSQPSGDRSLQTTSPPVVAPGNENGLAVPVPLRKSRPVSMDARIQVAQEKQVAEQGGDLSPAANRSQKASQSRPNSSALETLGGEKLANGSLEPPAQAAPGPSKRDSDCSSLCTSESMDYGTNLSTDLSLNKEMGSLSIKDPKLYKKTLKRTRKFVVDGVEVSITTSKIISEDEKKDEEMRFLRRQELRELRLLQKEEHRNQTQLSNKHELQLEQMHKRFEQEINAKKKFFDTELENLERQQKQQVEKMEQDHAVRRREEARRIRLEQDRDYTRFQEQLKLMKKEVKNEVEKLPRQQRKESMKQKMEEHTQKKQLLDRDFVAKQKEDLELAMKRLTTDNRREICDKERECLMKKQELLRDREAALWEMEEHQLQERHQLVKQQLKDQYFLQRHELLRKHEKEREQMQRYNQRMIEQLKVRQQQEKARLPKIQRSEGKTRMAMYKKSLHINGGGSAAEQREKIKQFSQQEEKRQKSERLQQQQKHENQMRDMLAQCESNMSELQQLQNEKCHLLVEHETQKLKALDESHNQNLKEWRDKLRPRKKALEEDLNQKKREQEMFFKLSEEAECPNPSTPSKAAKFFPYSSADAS
T35 sequence (Q9UK32 whole entry): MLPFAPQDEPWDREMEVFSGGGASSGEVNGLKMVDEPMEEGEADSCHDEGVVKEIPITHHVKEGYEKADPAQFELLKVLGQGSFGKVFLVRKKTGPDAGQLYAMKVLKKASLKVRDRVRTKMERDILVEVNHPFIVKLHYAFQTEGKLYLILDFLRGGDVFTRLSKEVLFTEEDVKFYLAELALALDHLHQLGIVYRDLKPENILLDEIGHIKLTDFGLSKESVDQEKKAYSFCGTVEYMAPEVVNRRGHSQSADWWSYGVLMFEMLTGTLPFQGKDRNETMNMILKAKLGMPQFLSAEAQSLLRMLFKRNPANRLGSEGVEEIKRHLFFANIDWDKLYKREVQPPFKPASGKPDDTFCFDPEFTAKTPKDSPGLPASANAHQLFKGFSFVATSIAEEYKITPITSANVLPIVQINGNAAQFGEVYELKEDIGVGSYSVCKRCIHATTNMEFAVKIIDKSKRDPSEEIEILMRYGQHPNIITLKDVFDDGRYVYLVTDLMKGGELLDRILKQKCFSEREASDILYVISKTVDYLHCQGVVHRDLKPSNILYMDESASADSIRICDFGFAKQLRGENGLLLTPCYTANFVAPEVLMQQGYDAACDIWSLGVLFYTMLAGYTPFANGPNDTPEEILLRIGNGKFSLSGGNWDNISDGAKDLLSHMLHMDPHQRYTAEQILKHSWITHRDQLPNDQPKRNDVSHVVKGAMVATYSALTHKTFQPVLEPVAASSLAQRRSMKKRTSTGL
T12 sequence (O75116 whole entry): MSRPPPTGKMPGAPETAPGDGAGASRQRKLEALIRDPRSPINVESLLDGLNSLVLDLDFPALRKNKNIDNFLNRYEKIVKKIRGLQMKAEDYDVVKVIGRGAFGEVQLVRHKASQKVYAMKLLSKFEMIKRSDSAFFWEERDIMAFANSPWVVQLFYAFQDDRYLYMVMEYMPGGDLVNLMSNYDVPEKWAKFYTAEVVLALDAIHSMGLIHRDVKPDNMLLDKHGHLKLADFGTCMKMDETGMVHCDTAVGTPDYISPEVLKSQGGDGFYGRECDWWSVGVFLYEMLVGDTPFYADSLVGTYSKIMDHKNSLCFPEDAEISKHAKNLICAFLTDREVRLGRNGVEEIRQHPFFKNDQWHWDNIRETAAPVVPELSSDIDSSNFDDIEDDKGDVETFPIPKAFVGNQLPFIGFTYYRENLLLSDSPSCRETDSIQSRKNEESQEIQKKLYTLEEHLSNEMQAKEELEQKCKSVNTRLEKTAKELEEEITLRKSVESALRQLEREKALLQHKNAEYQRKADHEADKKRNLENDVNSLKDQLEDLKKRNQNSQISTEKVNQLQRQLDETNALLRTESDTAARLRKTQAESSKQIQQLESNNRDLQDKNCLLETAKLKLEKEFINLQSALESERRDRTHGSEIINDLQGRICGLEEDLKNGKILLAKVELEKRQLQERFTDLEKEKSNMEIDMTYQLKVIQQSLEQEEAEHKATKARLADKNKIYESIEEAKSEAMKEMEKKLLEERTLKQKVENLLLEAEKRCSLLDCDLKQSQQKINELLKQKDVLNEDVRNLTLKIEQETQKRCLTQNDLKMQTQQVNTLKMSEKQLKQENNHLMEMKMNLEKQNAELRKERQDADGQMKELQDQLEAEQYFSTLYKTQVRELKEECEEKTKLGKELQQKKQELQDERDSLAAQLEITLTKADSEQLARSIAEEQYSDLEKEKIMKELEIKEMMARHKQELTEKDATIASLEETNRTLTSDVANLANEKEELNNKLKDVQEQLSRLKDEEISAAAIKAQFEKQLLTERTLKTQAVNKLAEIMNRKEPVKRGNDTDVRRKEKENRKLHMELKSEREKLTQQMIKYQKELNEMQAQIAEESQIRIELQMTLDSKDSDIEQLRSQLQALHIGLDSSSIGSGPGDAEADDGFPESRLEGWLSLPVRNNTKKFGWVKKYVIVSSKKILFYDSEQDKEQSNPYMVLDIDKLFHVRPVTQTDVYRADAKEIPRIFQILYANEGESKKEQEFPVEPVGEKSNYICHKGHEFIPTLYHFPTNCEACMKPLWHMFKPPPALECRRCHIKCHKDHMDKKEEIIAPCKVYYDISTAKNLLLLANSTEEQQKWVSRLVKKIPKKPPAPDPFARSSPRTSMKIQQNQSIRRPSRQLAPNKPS
T6 sequence (P29323 19-1055): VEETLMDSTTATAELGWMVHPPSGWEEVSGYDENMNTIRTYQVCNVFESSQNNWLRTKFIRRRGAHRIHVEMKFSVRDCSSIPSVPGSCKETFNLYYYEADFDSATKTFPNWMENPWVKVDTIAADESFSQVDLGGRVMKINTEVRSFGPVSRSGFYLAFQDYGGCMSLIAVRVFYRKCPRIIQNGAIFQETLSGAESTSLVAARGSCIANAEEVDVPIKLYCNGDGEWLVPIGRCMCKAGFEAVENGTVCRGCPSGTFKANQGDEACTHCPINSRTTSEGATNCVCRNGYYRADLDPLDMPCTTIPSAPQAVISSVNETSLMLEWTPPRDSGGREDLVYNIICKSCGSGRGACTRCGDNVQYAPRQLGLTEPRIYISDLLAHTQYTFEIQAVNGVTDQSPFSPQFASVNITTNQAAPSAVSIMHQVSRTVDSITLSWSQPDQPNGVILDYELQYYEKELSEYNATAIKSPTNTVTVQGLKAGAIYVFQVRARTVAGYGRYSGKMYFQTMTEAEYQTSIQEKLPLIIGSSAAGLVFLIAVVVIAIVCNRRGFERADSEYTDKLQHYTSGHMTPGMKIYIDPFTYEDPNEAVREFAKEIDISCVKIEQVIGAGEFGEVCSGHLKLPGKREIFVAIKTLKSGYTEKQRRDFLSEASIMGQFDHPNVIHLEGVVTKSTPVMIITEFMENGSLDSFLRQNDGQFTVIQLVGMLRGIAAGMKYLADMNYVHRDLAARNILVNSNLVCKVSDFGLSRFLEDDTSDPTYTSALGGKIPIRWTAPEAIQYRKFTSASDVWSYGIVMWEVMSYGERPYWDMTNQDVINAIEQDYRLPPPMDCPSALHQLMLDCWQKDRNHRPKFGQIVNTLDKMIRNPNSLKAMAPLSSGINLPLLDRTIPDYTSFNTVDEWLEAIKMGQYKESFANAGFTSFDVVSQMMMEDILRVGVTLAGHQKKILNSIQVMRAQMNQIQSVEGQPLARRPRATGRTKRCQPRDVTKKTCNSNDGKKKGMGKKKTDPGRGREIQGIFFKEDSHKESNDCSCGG
T7 sequence (P27361 whole entry): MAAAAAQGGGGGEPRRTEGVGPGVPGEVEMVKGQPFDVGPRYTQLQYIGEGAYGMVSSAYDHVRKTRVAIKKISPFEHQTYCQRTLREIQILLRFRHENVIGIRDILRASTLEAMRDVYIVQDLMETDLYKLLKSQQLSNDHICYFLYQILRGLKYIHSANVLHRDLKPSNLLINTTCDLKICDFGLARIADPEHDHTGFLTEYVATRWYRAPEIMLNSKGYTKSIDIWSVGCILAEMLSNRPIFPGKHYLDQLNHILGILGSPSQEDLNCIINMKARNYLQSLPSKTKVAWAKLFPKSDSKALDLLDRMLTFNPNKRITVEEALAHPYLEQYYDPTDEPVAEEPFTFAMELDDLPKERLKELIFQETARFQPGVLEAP

## COc1cc(OC)cc(N(CCN[C@H](C)CO)c2ccc3ncc(-c4cnn(C)c4)c(=O)n3c2)c1 [RK-019, (R)-7-((3,5-dimethoxyphenyl) (2-((1-hydroxypropan-2-yl)amino)ethyl)amino)-3-(1-methyl-1H-pyrazol-4-yl)-4H-pyrido [1,2-a]pyrimidin-4-one]
CHK2(R145W)(h)
  activity at 1 µM: 100%
TTBK2(h)
  activity at 1 µM: 82%
PRAK(h)
  activity at 1 µM: 95%
GRK5(h)
  activity at 1 µM: 135%
ACTR2(h)
  activity at 1 µM: 85%
EphB2(h)
  activity at 1 µM: 96%
MAPK1(h)
  activity at 1 µM: 116%
CDK4/cyclinD3(h)
  activity at 1 µM: 101%
ROCK-I(h)
  activity at 1 µM: 101%
PASK(h)
  activity at 1 µM: 96%
CLK4(h)
  activity at 1 µM: 89%
ROCK-II(h)
  activity at 1 µM: 105%
MEK2(h)
  activity at 1 µM: 85%
JNK1α1(h)
  activity at 1 µM: 96%
STK25(h)
  activity at 1 µM: 66%
LOK(h)
  activity at 1 µM: 76%
[1]
  activity at 1 µM: 100%
CaMKK1(h)
  activity at 1 µM: 105%
NEK9(h)
  activity at 1 µM: 91%
Abl (M351T)(h)
  activity at 1 µM: 34%
ASK1(h)
  activity at 1 µM: 118%
Blk(m)
  activity at 1 µM: 53%
CLK3(h)
  activity at 1 µM: 102%
TSSK1(h)
  activity at 1 µM: 109%
SBK1(h)
  activity at 1 µM: 96%
Abl(Y253F)(h)
  activity at 1 µM: 54%
Bmx(h)
  activity at 1 µM: 64%
MEKK3(h)
  activity at 1 µM: 103%
MRCKγ(h)
  activity at 1 µM: 94%
VRK2(h)
  activity at 1 µM: 104%
TTBK1(h)
  activity at 1 µM: 90%
BTK(h)
  activity at 1 µM: 72%
Tec(h) activated
  activity at 1 µM: 96%
CaMKIIβ(h)
  activity at 1 µM: 80%
Rsk4(h)
  activity at 1 µM: 146%
AMPKα2(h)
  activity at 1 µM: 109%
CK1γ3(h)
  activity at 1 µM: 87%

Source: paper PMC9532703, “A novel small molecule RK-019 inhibits FGFR2-amplification gastric cancer cell proliferation and induces apoptosis in vitro and in vivo” (Frontiers in Pharmacology, 2022)
